According to ChEMBL document CHEMBL3044726, “Synthesis and Acaricidal Activities of New Benzophenone O-Methyloximes” (2001):
Values after ≈ are worked out from the molar mass of the structure shown.

Legend:
Assay type in all cases: functional
[1] = test system: Tetranychus urticae; test: Acaricidal activity against Tetranychus urticae (two-spotted spider mite) in two-leaf stage of kidney bean leaf surface at 500 ppm after 6 hr relative to control
[2] = test system: Tetranychus urticae; test: Acaricidal activity against Tetranychus urticae (two-spotted spider mite) in two-leaf stage of kidney bean leaf surface at 250 ppm after 6 hr relative to control
[3] = test system: Tetranychus urticae; test: Acaricidal activity against Tetranychus urticae (two-spotted spider mite) in two-leaf stage of kidney bean leaf surface at 62.5 ppm after 6 hr relative to control
[4] = test system: Tetranychus urticae; test: Acaricidal activity against Tetranychus urticae (two-spotted spider mite) in two-leaf stage of kidney bean leaf surface at 15.6 ppm after 6 hr relative to control
[5] = test system: Tetranychus kanzawai; test: Acaricidal activity against Tetranychus kanzawai in kidney bean leaf surface after 48 hr
[6] = test system: Tetranychus urticae; test: Acaricidal activity against Tetranychus urticae (two-spotted spider mite) in kidney bean leaf surface after 48 hr

Row | SMILES | Activity [1] [%] | other results
1 | CO/N=C(/c1cccc(Cl)c1)c1ccccc1COc1ccc(C(F)(F)F)cn1 | 0 | –
2 | CO/N=C(/c1ccc(C)cc1)c1ccccc1COc1ccc(C(F)(F)F)cn1 | 0 | –
3 | CO/N=C(\c1ccc(Cl)cc1)c1ccccc1COc1ccc(C(F)(F)F)cc1 | 95 | Activity [2]: 70%
4 | CO/N=C(/c1ccc(Cl)cc1)c1ccccc1COc1nnc(C(F)(F)F)s1 | 0 | –
5 | CO/N=C(/c1ccc(OC(F)(F)F)cc1)c1ccccc1COc1ccc(C(F)(F)F)cn1 | 95 | Activity [3]: 70%; Activity [2]: 70%; Activity [4]: 0%
6 | CC(C)(C)c1ccc(CSc2cnn(C(C)(C)C)c(=O)c2Cl)cc1 [PYRIDABEN] | – | LC50 [5]: 33.7 µg/mL (≈ 92.3 µM); LC50 [6]: 34.5 µg/mL (≈ 94.5 µM)
7 | CON=C(c1ccc(F)cc1)c1cccc(COc2ccc(C(F)(F)F)cc2)c1 | 0 | –
8 | CO/N=C(/c1ccc(OC)cc1)c1ccccc1COc1ccc(C(F)(F)F)cn1 | 0 | –
9 | CON=C(c1ccc(Cl)cc1)c1ccc(COc2ccc(C(F)(F)F)cc2)cc1 | 0 | –
10 | CO/N=C(/c1ccc(Cl)cc1)c1ccccc1COc1ccccc1Cl | 0 | –
11 | CO/N=C(\c1ccc(F)cc1)c1ccccc1COc1ccc(C(F)(F)F)cc1 | 70 | –
12 | CO/N=C(/c1ccc(C(F)(F)F)cc1)c1ccccc1COc1ccc(C(F)(F)F)cn1 | 95 | Activity [3]: 95%; LC50 [5]: 7.2 µg/mL (≈ 15.8 µM); Activity [2]: 95%; LC50 [6]: 24.8 µg/mL (≈ 54.6 µM); Activity [4]: 70%
13 | CO/N=C(/c1ccccc1)c1ccccc1COc1ccc(C(F)(F)F)cn1 | 0 | –
14 | CON=C(c1ccc(F)cc1)c1ccc(COc2ccc(C(F)(F)F)cc2)cc1 | 0 | –
15 | CO/N=C(/c1ccc(Cl)cc1)c1ccccc1COc1ccc(C(F)(F)F)cn1 | 95 | Activity [3]: 95%; LC50 [5]: 9 µg/mL (≈ 21.4 µM); Activity [2]: 95%; LC50 [6]: 16.4 µg/mL (≈ 39 µM); Activity [4]: 95%
16 | CO/N=C(/c1ccc(Cl)cc1)c1ccccc1COc1cccc(Cl)c1 | 0 | –
17 | CO/N=C(/c1ccc(Cl)cc1)c1ccccc1Oc1ccc(C(F)(F)F)cc1 | 0 | –
18 | CO/N=C(/c1ccc(Cl)cc1)c1ccccc1COc1ccc(Cl)cc1 | 0 | –
19 | CO/N=C(/c1ccc(C#N)cc1)c1ccccc1COc1ccc(C(F)(F)F)cn1 | 95 | Activity [3]: 70%; Activity [2]: 95%; Activity [4]: 0%
20 | CON=C(c1ccc(Cl)cc1)c1cccc(COc2ccc(C(F)(F)F)cc2)c1 | 0 | –

Row | SMILES | Activity [1] [%] | other results
21 | CO/N=C(/c1ccc(Cl)cc1)c1ccccc1COc1ccc(C(C)(C)C)cc1 | 0 | –
22 | CO/N=C(/c1ccc(Cl)cc1)c1ccccc1COc1ccc(OC(F)(F)F)cc1 | 0 | –
23 | CO/N=C(/c1ccc(Cl)cc1)c1ccccc1COc1ccc(C)cc1 | 0 | –
24 | CO/N=C(/c1ccc(Cl)cc1)c1ccccc1COc1cccc(C(F)(F)F)c1 | 0 | –
25 | CO/N=C(/c1ccc(Cl)cc1)c1ccccc1OCc1ccc(C(F)(F)F)cc1 | 0 | –
26 | CO/N=C(/c1ccccc1Cl)c1ccccc1COc1ccc(C(F)(F)F)cn1 | 0 | –
27 | CO/N=C(/c1ccc(-c2ccccc2)cc1)c1ccccc1COc1ccc(C(F)(F)F)cn1 | 0 | –
28 | CO/N=C(/c1ccc(Cl)cc1)c1ccccc1COc1ncccc1C(F)(F)F | 0 | –
29 | CO/N=C(/c1ccc(Oc2ccccc2)cc1)c1ccccc1COc1ccc(C(F)(F)F)cn1 | 0 | –
30 | CO/N=C(/c1ccc(F)cc1)c1ccccc1COc1ccc(C(F)(F)F)cn1 | 95 | Activity [3]: 70%; Activity [2]: 95%; Activity [4]: 0%
31 | CO/N=C(/c1ccc([N+](=O)[O-])cc1)c1ccccc1COc1ccc(C(F)(F)F)cn1 | 95 | Activity [3]: 70%; Activity [2]: 95%; Activity [4]: 0%
32 | CO/N=C(/c1cccc(F)c1)c1ccccc1COc1ccc(C(F)(F)F)cn1 | 70 | –
33 | CO/N=C(/c1ccc(Cl)cc1)c1ccccc1COc1ccccc1C(F)(F)F | 0 | –
34 | CON=C(c1ccccc1F)c1ccccc1COc1ccc(C(F)(F)F)cn1 | 0 | –
35 | CO/N=C(/c1ccc(Br)cc1)c1ccccc1COc1ccc(C(F)(F)F)cn1 | 95 | Activity [3]: 95%; Activity [2]: 95%; Activity [4]: 70%
36 | CO/N=C(/c1ccc(Cl)cc1)c1ccccc1COc1ccc(-c2ccccc2)cc1 | 0 | –
37 | CO/N=C(/c1ccc(Cl)cc1)c1ccccc1COc1ccccc1 | 0 | –
38 | CO/N=C(/c1ccc(Cl)cc1)c1ccccc1COc1ccc(C(F)(F)F)cc1 | 95 | Activity [3]: 0%; Activity [2]: 95%
39 | CO/N=C(/c1ccc(F)cc1)c1ccccc1COc1ccc(C(F)(F)F)cc1 | 95 | Activity [2]: 0%
40 | CO/N=C(/c1ccc(Cl)cc1)c1ccccc1COc1ncc(C(F)(F)F)cc1Cl | 0 | –
